Values of other authors as cited in patent US20110217715A1, “GENE EXPRESSION IN DUCHENNE MUSCULAR DYSTROPHY” (CHILDREN'S HOSPITAL MEDICAL CENTER, priority 2008, published 2011).

System: individuals with DMD
Conditions: cited from earlier work

CC(=O)OCC(=O)[C@@]12N=C(C)O[C@@H]1C[C@H]1[C@@H]3CCC4=CC(=O)C=C[C@]4(C)[C@H]3[C@@H](O)C[C@@]12C [deflazacort]
side effects / weight gain (DMD individuals receiving deflazacort, relative to prednisone): fewer side effects, in particular, less weight gain | muscle function and strength (individuals with DMD): improved muscle function and strength
